# Assay results from patent publication US20160178610A1, “New screening method for the treatment Friedreich's ataxia” (FRIEDRICH MIESCHER INSTITUTE FOR BIOMEDICAL RESEARCH, priority 2013, published 2016).
# Experiments:
# [1] = system: endogenous FXN gene expression in FRDA-iPSC-derived neurons; assay: FXN mRNA levels in FRDA-iPSC-derived neurons by real-time RT-PCR, normalized to RPL13A; type: cell-based, human; details: for effect on FXN expression: FRDA-iPSC-derived neurons, treated for 3 weeks, five concentrations, biological duplicates
# Experimental: (§1) FIG. 1: Exposure of FRDA-iPSC-derived neurons to [2,6] Naphtyhyridine is the cyclohexyl-[4-(4-phenyl-1-piperazin-1-yl-[2,6]naphthyridin-3-yl)pyridin-2-yl]amine, a chemical inhibitor of PRKD1, leads to an increase in FXN expression while a control compound has no effect. […] FXN mRNA levels were determined by real-time RT-PCR, normalized to RPL13A mRNA levels. *P=0.03.
# For quantitative RT-PCR (qRT-PCR) experiments, total RNA was extracted from GM04078, FRDA-4078iBT, and HEK293T-FF2AP cell lines with the Absolutely RNA Microprep Kit (Stratagene). A 1-μg aliquot of total RNA was reverse transcribed with AffinityScript enzyme (Stratagene) using random hexamers according to the manufacturer's instructions. qRT-PCR was performed on a CFX96 Real-Time PCR System (Bio-Rad) using the SsoAdvanced SYBR Green Supermix (Bio-Rad, #172-5264). Relative RNA levels were calculated from CT values according to the ΔCT method and normalized to GAPDH mRNA or 18S rRNA levels. Reprogrammed cells were washed once and total RNA isolated using TRIzol (Life Technologies). After chloroform extraction, RNA was purified using a RNeasy Plus Kit (Qiagen, Germantown, Md.). RNA purity and concentration were verified using an Aligent 2100 Bioanalyzer (Santa Clara, Calif.). […]
# Endoderm: Accutase was used for cell dissociation to single cells, which were then plated on matrigel in mTeSR with rock-inhibitor Y27632 (Calbiochem, Darmstadt, Germany) at a density of 100×10^3 per cm^2. […] In order to quantify the efficiency of differentiation into Pax6-expressing neural progenitors, immunostained cultures were generated and the percentage of Pax6-positive and DAPI-positive cells determined in 10 randomly selected microscopic fields. In order to quantify the efficiency of differentiation into β-III Tubulin-expressing neurons, a similar approach was used with cultures previously treated with cytosine-1-β-D-arabinofuranoside to prevent the expansion of neural progenitors. […]
# [2] = system: FRDA-iPSC-derived neurons; assay: Neuron viability / compound toxicity in FRDA-iPSC-derived neuron cultures; type: cell-based, human; details: even at 10 μM
# Experimental: as §1
# Importantly, treatment with the compound of formula (II) led to a 25% increase in FXN mRNA expression in FRDA neurons after only 3 weeks of treatment. […] In addition, neuron viability was not affected by exposure to the compound of formula (II), even at 10 μM.
smiles,measurement,setting,value
"c1ccc(-c2c(-c3ccnc(NC4CCCCC4)c3)nc(N3CCNCC3)c3ccncc23)cc1 [compound of formula (II), cyclohexyl-[4-(4-phenyl-1-piperazin-1-yl-[2,6]naphthyridin-3-yl)pyridin-2-yl]amine]",increase in FXN mRNA expression,"[1]; FRDA neurons, after 3 weeks of treatment",25%
same,effect on FXN expression,[1],significant increase
same,effect on FXN expression,"[1]; listed as cyclohexyl-[4-(4-phenyl-1-piperazin-1-yl-[2,6]naphthyridin-3-yl)pyridin-2-yl]ami",increase
same,neuron viability,[2],not affected
